4 compounds from ChEMBL document CHEMBL1140805, “1-Toluene-sulfonyl-3-[(3'-hydroxy-5'-substituted)-gamma-butyrolactone]-indoles: synthesis, COX-2 inhibition and anti-cancer activities” (Bioorg Med Chem Lett, 2008) can be followed below.

The species entered for one data set is Ovis aries. Put plainly: Selectivity index, Ratio of IC50 for ovine COX2 to IC50 for ovine COX1.
For data set [1], the target named is T1, Prostaglandin G/H synthase 1 (Ovis aries, UniProt P05979).
T1 sequence (P05979 whole entry): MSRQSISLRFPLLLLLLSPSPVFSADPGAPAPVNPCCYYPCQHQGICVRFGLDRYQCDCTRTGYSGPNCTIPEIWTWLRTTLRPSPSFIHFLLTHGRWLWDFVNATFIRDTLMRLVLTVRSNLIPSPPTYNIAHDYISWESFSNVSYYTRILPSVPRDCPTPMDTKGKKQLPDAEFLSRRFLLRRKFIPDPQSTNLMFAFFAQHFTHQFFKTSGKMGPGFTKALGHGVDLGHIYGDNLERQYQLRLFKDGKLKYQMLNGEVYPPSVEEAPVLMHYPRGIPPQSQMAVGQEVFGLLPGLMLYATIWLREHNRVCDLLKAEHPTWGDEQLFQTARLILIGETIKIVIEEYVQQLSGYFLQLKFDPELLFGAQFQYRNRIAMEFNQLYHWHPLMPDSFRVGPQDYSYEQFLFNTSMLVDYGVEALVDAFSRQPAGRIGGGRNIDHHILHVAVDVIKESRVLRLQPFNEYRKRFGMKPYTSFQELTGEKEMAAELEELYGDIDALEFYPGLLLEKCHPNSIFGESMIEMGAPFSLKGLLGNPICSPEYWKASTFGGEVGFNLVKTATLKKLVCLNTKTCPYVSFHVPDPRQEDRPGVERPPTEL

Data set [2] concerns the target T2, Prostaglandin G/H synthase 1 (Ovis aries) (UniProt P05979).
T2 sequence (whole entry): T1 sequence (P05979 whole entry)
Put plainly: Inhibition of ovine COX1 at 10 uM.

Data set [3] can be described thus: Partition coefficient, log P of the compound. Particulars: octanol/water. It is filed as physicochemical.

A value given as a limit tells only on which side of the number the result lay.

As to `Cc1ccc(S(=O)(=O)n2cc([C@@]3(O)C[C@H](CSC#N)OC3=O)c3ccccc32)cc1`, the Ratio IC50 in the data set filed under Ovis aries was greater than 1000. Moreover, the IC50 (commonly the concentration at which inhibition is half-maximal) in data set [1] is less than 10 µM. Further, the inhibition (commonly the relative decrease from the control value, in per cent) in data set [2] is 65%. The logP – broadly, the decadic logarithm of the partition coefficient of the neutral form, usually between octanol and water – in data set [3] came to 1.78.

In the case of `CS(=O)(=O)c1ccc(C2=C(c3ccccc3)C(=O)OC2)cc1`, the inhibition in data set [2] is 75%.

As for `CCSC[C@H]1C[C@](O)(c2cn(S(=O)(=O)c3ccc(C)cc3)c3ccccc23)C(=O)O1`, the Ratio IC50 in the data set listed under Ovis aries is less than 1000. The compound further gave an IC50 in data set [1] greater than 10 µM. For the same compound, in data set [2], the inhibition stood at 35%. Besides, the logP in data set [3] stood at 2.38.

`Cc1ccc(S(=O)(=O)n2cc([C@@]3(O)C[C@H](CI)OC3=O)c3ccccc32)cc1`: in data set [1], the IC50 is greater than 10 µM. The compound further had an inhibition in data set [2] of 40%. In data set [3], this compound displayed a logP of 2.49.
